Assay results taken from ChEMBL document CHEMBL1909046, “DrugMatrix in vitro pharmacology data”.

Columns and labels:
[1] = biological target: T1, 5-hydroxytryptamine receptor 1A (Rattus norvegicus, UniProt P19327); assay type: cell membranes, CHO-K1, Membrane; conditions: cho-k1; further: in other assays of this panel Not Active means under 50% inhibition at 10 µM
T1 sequence (P19327 whole entry): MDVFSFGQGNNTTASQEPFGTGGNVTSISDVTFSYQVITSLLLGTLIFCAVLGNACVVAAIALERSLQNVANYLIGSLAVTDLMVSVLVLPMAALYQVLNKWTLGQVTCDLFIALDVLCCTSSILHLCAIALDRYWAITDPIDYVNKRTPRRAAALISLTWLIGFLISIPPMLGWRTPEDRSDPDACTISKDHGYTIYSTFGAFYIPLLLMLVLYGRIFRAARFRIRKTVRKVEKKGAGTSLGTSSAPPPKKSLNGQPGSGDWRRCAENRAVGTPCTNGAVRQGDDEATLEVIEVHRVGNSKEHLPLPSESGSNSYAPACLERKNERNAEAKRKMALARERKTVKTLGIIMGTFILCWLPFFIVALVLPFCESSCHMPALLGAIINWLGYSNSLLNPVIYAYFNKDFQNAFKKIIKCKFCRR

[2] = biological target: T2, Muscarinic acetylcholine receptor M5 (Homo sapiens, UniProt P08912); assay type: cell membranes, CHO-K1, Membrane; conditions: cho-k1; further: in other assays of this panel Not Active means under 50% inhibition at 10 µM
T2 sequence (P08912 whole entry): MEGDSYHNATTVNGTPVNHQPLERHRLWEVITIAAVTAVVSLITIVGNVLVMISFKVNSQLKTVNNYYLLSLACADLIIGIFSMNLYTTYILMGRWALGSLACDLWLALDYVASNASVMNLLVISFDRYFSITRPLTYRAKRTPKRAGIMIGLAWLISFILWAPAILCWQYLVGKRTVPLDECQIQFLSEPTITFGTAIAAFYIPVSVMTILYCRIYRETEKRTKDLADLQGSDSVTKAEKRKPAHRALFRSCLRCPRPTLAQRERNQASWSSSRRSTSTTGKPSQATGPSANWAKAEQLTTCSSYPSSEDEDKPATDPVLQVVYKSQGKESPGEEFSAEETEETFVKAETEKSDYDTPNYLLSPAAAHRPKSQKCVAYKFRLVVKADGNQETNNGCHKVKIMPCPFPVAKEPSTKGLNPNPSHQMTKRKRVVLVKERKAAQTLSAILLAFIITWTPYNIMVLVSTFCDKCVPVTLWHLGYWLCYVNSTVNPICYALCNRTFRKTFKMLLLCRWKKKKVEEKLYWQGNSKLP

[3] = DRUGMATRIX: ATPase, Na+/K+ enzyme inhibition (substrate: ATP); assay type: tissue-based, Sus scrofa, Heart; conditions: Not Active = under 50% inhibition at 10 µM
[4] = biological target: Kappa-type opioid receptor (Homo sapiens, UniProt P41145); experiment: DRUGMATRIX: Opiate kappa (OP2, KOP) radioligand binding (ligand: [3H] Diprenorphine); assay type: cell membranes, HEK293, Membrane; conditions: hek293; Not Active = under 50% inhibition at 10 µM
[5] = biological target: T3, Cysteinyl leukotriene receptor 1 (Homo sapiens, UniProt Q9Y271); assay type: cell membranes, CHO-K1, Membrane; conditions: cho-k1; further: in other assays of this panel Not Active means under 50% inhibition at 10 µM
T3 sequence (Q9Y271 whole entry): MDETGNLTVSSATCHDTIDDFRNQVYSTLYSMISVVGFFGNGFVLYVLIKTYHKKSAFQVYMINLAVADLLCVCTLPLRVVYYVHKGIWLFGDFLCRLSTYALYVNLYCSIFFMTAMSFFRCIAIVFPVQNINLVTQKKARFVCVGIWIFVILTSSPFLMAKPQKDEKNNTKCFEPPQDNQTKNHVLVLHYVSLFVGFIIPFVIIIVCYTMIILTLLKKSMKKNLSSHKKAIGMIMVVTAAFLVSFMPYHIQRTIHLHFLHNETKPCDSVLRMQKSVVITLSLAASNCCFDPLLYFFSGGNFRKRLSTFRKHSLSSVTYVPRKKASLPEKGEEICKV

[6] = DRUGMATRIX: Potassium Channel [KATP] radioligand binding (ligand: [3H] Glyburide); assay type: cell membranes, Membrane; conditions: hit-t15; Not Active = under 50% inhibition at 10 µM
[7] = biological target: Protein kinase C alpha type (Homo sapiens, UniProt P17252); assay type: cell-based; conditions: sf9;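 further: inhibition of PKCalpha kinase activity measured in an enzyme assay with histone as the phosphorylation substrate; in other assays of this panel Not Active means under 50% inhibition at 10 µM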
[8] = biological target: Aldo-keto reductase family 1 member B1 (Rattus norvegicus, UniProt P07943); assay type: tissue-based, Lens of camera-type eye
[9] = DRUGMATRIX: Phosphodiesterase PDE3 enzyme inhibition (substrate: [3H]cAMP + cAMP); assay type: tissue-based, Homo sapiens; conditions: platelet; Not Active = under 50% inhibition at 10 µM
[10] = biological target: T4, Adenosine receptor A3 (Homo sapiens, UniProt P0DMS8); assay type: cell membranes, CHO-K1, Membrane
T4 sequence (P0DMS8 whole entry): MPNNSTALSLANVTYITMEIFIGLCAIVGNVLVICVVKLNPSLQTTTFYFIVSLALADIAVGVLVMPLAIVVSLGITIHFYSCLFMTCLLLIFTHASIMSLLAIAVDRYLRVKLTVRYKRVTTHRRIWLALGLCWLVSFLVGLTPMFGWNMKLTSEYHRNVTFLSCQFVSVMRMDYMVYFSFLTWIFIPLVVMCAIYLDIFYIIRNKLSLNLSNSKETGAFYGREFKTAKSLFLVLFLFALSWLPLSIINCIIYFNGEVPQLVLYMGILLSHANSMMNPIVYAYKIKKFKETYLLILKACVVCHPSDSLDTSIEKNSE

[11] = biological target: Beta-2 adrenergic receptor (Homo sapiens, UniProt P07550); experiment: DRUGMATRIX: Adrenergic beta2 radioligand binding (ligand: [3H] CGP-12177); assay type: cell membranes, Membrane; conditions: cho; Not Active = under 50% inhibition at 10 µM
[12] = biological target: Tyrosine-protein kinase Fyn (Homo sapiens, UniProt P06241); experiment: biochemical; assay type: cell-based, Insect cells; conditions: insect cells
[13] = biological target: Carbonic anhydrase 2 (Homo sapiens, UniProt P00918); experiment: DRUGMATRIX: Carbonic Anhydrase II enzyme inhibition (substrate: 4-Nitrophenyl acetate (4-NPA)); assay type: tissue-based, Erythrocyte; conditions: erythrocyte; Not Active = under 50% inhibition at 10 µM
[14] = biological target: Vascular endothelial growth factor receptor 1 (Homo sapiens, UniProt P17948); assay type: cell-based; conditions: huvec; further: in other assays of this panel Not Active means under 50% inhibition at 10 µM
[15] = biological target: Melanocortin receptor 3 (Homo sapiens, UniProt P41968); assay type: cell membranes, Membrane; conditions: hek293; further: in other assays of this panel Not Active means under 50% inhibition at 10 µM
[16] = DRUGMATRIX: GABAA, Chloride Channel, TBOB radioligand binding (ligand: [3H] TBOB); assay type: cell membranes, Rattus norvegicus, Wistar, Cerebral cortex, Membrane; conditions: Not Active = under 50% inhibition at 10 µM
[17] = biological target: T5, Leukotriene C4 synthase (Cavia porcellus, UniProt A6XA80); experiment: biochemical; assay type: tissue-based, Lung
T5 sequence (A6XA80 whole entry): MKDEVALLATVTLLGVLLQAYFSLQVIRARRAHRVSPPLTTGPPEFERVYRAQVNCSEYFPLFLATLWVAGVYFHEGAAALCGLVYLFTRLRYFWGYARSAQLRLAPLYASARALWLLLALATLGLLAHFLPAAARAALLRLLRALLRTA

Tyrosine-protein kinase Fyn, sequence (P06241 whole entry): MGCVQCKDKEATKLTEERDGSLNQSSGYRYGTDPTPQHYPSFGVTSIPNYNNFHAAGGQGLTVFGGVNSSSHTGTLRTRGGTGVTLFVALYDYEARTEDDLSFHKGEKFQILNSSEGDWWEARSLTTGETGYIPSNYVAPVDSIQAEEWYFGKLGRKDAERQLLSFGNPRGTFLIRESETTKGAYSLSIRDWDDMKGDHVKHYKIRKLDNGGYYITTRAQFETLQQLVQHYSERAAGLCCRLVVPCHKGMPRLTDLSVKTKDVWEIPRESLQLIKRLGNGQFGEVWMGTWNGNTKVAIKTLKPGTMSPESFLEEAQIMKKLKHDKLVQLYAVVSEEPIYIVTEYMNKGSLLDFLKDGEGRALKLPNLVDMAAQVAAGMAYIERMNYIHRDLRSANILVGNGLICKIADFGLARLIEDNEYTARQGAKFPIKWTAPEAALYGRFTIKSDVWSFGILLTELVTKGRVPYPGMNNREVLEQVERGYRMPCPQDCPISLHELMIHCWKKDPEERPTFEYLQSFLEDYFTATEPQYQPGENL
Melanocortin receptor 3, sequence (P41968 whole entry): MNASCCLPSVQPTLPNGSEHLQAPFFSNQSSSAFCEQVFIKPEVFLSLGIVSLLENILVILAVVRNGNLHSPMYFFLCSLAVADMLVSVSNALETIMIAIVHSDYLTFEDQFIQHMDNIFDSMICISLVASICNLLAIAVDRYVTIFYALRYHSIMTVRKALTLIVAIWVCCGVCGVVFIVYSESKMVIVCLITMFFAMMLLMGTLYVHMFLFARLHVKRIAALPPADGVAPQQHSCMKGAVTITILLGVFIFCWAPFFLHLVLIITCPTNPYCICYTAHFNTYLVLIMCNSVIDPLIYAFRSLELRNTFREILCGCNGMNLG
Kappa-type opioid receptor, sequence (P41145 whole entry): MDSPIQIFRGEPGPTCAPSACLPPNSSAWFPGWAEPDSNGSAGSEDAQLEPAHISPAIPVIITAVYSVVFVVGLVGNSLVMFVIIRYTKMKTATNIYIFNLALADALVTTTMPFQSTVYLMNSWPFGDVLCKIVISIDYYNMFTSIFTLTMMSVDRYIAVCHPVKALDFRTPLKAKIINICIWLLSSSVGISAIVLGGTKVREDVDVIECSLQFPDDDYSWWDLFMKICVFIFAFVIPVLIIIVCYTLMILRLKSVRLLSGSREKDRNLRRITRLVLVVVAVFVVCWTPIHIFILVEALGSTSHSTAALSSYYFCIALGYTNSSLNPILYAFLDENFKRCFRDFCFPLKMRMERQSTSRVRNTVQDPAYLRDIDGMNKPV
Vascular endothelial growth factor receptor 1, sequence (P17948 whole entry): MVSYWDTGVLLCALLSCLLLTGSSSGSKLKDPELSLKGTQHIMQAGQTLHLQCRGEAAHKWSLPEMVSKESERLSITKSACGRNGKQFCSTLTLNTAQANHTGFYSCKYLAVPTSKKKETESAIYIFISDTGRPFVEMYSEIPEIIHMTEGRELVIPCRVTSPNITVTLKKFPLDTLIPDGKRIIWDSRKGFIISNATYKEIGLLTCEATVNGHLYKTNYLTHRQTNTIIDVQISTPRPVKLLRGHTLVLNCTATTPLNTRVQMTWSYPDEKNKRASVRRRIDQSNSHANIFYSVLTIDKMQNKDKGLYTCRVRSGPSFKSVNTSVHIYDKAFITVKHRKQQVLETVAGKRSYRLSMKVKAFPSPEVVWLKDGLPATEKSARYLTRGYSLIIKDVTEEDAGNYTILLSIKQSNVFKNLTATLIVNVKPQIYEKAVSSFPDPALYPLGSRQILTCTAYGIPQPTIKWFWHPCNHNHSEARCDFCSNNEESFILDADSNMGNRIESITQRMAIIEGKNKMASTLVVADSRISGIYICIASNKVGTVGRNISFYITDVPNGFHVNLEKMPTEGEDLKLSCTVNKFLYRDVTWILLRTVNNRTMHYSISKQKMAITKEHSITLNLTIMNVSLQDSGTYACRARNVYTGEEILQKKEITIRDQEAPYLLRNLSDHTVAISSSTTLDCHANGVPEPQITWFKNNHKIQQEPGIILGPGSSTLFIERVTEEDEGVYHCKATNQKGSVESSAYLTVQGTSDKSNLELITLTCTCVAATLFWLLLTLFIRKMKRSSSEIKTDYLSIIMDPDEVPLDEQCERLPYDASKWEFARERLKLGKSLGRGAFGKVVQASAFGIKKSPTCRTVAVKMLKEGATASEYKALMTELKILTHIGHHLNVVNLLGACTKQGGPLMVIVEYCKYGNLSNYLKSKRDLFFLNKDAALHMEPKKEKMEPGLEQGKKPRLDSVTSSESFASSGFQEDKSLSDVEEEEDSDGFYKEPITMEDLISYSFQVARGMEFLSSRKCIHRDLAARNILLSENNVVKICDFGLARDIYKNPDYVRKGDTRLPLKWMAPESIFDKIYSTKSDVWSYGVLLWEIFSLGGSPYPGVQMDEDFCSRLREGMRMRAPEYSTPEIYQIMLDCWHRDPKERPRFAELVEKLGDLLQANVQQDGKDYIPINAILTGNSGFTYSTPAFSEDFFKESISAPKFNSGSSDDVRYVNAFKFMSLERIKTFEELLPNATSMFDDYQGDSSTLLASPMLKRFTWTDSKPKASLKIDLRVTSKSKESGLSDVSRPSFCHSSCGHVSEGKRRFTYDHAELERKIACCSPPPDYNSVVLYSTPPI
Beta-2 adrenergic receptor, sequence (P07550 whole entry): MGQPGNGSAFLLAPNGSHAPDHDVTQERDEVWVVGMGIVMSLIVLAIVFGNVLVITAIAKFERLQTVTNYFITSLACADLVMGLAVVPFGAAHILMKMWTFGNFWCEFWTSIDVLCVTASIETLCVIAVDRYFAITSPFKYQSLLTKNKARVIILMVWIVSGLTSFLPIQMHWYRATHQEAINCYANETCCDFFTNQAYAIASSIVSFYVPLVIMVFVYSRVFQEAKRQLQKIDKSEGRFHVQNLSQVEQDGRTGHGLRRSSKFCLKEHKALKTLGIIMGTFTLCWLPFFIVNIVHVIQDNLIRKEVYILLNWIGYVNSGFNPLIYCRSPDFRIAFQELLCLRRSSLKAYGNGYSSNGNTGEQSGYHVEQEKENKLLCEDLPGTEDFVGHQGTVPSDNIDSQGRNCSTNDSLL

| Compound | IC50 [1] | IC50 [2] | IC50 [3] | Ki [3] | IC50 [4] | IC50 [5] | IC50 [6] | Ki [6] | IC50 [7] | IC50 [8] | IC50 [9] | Ki [9] | IC50 [11] | IC50 [12] | IC50 [13] | IC50 [14] | IC50 [15] | IC50 [16] | Ki [16] | IC50 [17] | also measured |
| --- | --- | --- | --- | --- | --- | --- | --- | --- | --- | --- | --- | --- | --- | --- | --- | --- | --- | --- | --- | --- | --- |
| CN[C@@H]1[C@@H](O)[C@@H](O[C@@H]2[C@@H](O)[C@H](O[C@H]3OC(CN)=CC[C@H]3N)[C@@H](N)C[C@H]2N)OC[C@]1(C)O [SISOMICIN] | Not Active | Not Active | Not Active | Not Active | Not Active | Not Active | Not Active | Not Active | Not Active | Not Active | Not Active | Not Active | Not Active | Not Active | Not Active | Not Active | Not Active | Not Active | Not Active | Not Active | IC50 ([10]; cho-k1): Not Active |
| CC(=O)S[C@@H]1CC2=CC(=O)CC[C@]2(C)[C@H]2CC[C@@]3(C)[C@@H](CC[C@@]34CCC(=O)O4)[C@H]12 [SPIRONOLACTONE] | Not Active | Not Active | Not Active | Not Active | Not Active | Not Active | Not Active | Not Active | Not Active | Not Active | Not Active | Not Active | Not Active | Not Active | Not Active | Not Active | Not Active | Not Active | Not Active | Not Active | IC50 ([10]; cho-k1): Not Active |
| C[C@]12Cc3c[nH]nc3C[C@@H]1CC[C@@H]1[C@@H]2CC[C@@]2(C)[C@H]1CC[C@]2(C)O [STANOZOLOL] | Not Active | Not Active | Not Active | Not Active | Not Active | Not Active | Not Active | Not Active | Not Active | Not Active | Not Active | Not Active | Not Active | Not Active | Not Active | Not Active | Not Active | Not Active | Not Active | Not Active | IC50 ([10]; read-out: IC50): 8.33 µM; Ki ([10]; read-out: Ki): 4.71 µM |
| CN(N=O)C(=O)N[C@@H](C=O)[C@@H](O)[C@H](O)[C@H](O)CO [STREPTOZOCIN] | Not Active | Not Active | Not Active | Not Active | Not Active | Not Active | Not Active | Not Active | Not Active | Not Active | Not Active | Not Active | Not Active | Not Active | Not Active | Not Active | Not Active | Not Active | Not Active | Not Active | IC50 ([10]; cho-k1): Not Active |
| Cc1cc(NS(=O)(=O)c2ccc(N)cc2)no1 [SULFAMETHOXAZOLE] | Not Active | Not Active | Not Active | Not Active | Not Active | Not Active | Not Active | Not Active | Not Active | Not Active | Not Active | Not Active | Not Active | Not Active | Not Active | Not Active | Not Active | Not Active | Not Active | Not Active | IC50 ([10]; cho-k1): Not Active |
| Nc1ccc(S(=O)(=O)Nc2ccnn2-c2ccccc2)cc1 [SULFAPHENAZOLE] | Not Active | Not Active | Not Active | Not Active | Not Active | Not Active | Not Active | Not Active | Not Active | Not Active | Not Active | Not Active | Not Active | Not Active | Not Active | Not Active | Not Active | Not Active | Not Active | Not Active | IC50 ([10]; cho-k1): Not Active |
| C=CC[C@@H]1/C=C(\C)C[C@H](C)C[C@H](OC)[C@H]2O[C@@](O)(C(=O)C(=O)N3CCCC[C@H]3C(=O)O[C@H](/C(C)=C/[C@@H]3CC[C@@H](O)[C@H](OC)C3)[C@H](C)[C@@H](O)CC1=O)[C@H](C)C[C@@H]2OC [TACROLIMUS ANHYDROUS] | Not Active | Not Active | Not Active | Not Active | Not Active | Not Active | Not Active | Not Active | Not Active | Not Active | Not Active | Not Active | Not Active | Not Active | Not Active | Not Active | Not Active | Not Active | Not Active | Not Active | IC50 ([10]; cho-k1): Not Active |
